# Columns and labels:
# Assay in all cases: relative viability (nuclei count vs DMSO), 5 days (fraction); higher = more cells survive
# EPLC-272H = tested on: EPLC-272H
# Outline: (§1)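 One day after seeding in 1536-well plates, lung cancer cell lines were dosed by pin tool. Dosing was either single-drug or a fixed anchor-drug dose plus five library-drug doses (not always all listed) in √10 steps. After 5 days, nuclei were stained in one fix-and-stain step and counted on 4× images, and relative viability is the nuclei count of treated wells over that of vehicle wells, given as the median of duplicate plates.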
# NCI-H2170 = tested on: NCI-H2170
# Outline: as §1
# NCI-H2023 = tested on: NCI-H2023
# Outline: as §1
# NCI-H1793 = tested on: NCI-H1793
# Outline: as §1
# UMC-11 = tested on: UMC-11
# Outline: as §1
# COR-L23 = tested on: COR-L23
# Outline: as §1
# NCI-H2347 = tested on: NCI-H2347
# Outline: as §1
# NCI-H647 = tested on: NCI-H647
# Outline: as §1
# NCI-H322M = tested on: NCI-H322M
# Outline: as §1
# HCC-15 = tested on: HCC-15
# Outline: as §1
# 201T = tested on: 201T
# Outline: as §1
# NCI-H520 = tested on: NCI-H520
# Outline: as §1
# H3255 = tested on: H3255
# Outline: as §1
# NCI-H1734 = tested on: NCI-H1734
# Outline: as §1
# NCI-H3122 = tested on: NCI-H3122
# Outline: as §1
# NCI-H2405 = tested on: NCI-H2405
# Outline: as §1
# NCI-H1650 = tested on: NCI-H1650
# Outline: as §1
# PC-14 = tested on: PC-14
# Outline: as §1
# NCI-H1563 = tested on: NCI-H1563
# Outline: as §1
# LOU-NH91 = tested on: LOU-NH91
# Outline: as §1
smiles,measurement,setting,value
COc1nc(C)cnc1NS(=O)(=O)c1cccnc1-c1ccc(-c2nnco2)cc1 [Zibotentan] + CS(=O)(=O)CCNCc1ccc(-c2ccc3ncnc(Nc4ccc(OCc5cccc(F)c5)c(Cl)c4)c3c2)o1 [Lapatinib] (partner 2 µM),relative viability,EPLC-272H; first compound 0.08 µM,0.982
same,relative viability,EPLC-272H; first compound 0.253 µM,0.894
same,relative viability,EPLC-272H; first compound 0.8 µM,0.919
same,relative viability,EPLC-272H; first compound 2.53 µM,0.869
same,relative viability,NCI-H2170; first compound 0.08 µM,0.27
same,relative viability,NCI-H2170; first compound 0.253 µM,0.264
same,relative viability,NCI-H2170; first compound 0.8 µM,0.251
same,relative viability,NCI-H2170; first compound 2.53 µM,0.285
same,relative viability,NCI-H2023; first compound 0.08 µM,0.87
same,relative viability,NCI-H2023; first compound 0.253 µM,0.4
same,relative viability,NCI-H2023; first compound 0.8 µM,0.651
same,relative viability,NCI-H2023; first compound 2.53 µM,0.846
same,relative viability,NCI-H1793; first compound 0.08 µM,0.903
same,relative viability,NCI-H1793; first compound 0.253 µM,0.645
same,relative viability,NCI-H1793; first compound 0.8 µM,0.596
same,relative viability,NCI-H1793; first compound 2.53 µM,0.938
same,relative viability,UMC-11; first compound 0.08 µM,0.919
same,relative viability,UMC-11; first compound 0.253 µM,0.86
same,relative viability,UMC-11; first compound 0.8 µM,0.967
same,relative viability,UMC-11; first compound 2.53 µM,1.06
same,relative viability,COR-L23; first compound 0.08 µM,1.21
same,relative viability,COR-L23; first compound 0.253 µM,0.849
same,relative viability,COR-L23; first compound 0.8 µM,0.922
same,relative viability,COR-L23; first compound 2.53 µM,0.798
same,relative viability,NCI-H2347; first compound 0.08 µM,1.05
same,relative viability,NCI-H2347; first compound 0.253 µM,0.941
same,relative viability,NCI-H2347; first compound 0.8 µM,1.19
same,relative viability,NCI-H2347; first compound 2.53 µM,0.943
same,relative viability,NCI-H647; first compound 0.08 µM,1.23
same,relative viability,NCI-H647; first compound 0.253 µM,0.924
same,relative viability,NCI-H647; first compound 0.8 µM,0.968
same,relative viability,NCI-H647; first compound 2.53 µM,1.06
same,relative viability,NCI-H322M; first compound 0.08 µM,0.553
same,relative viability,NCI-H322M; first compound 0.253 µM,0.621
same,relative viability,NCI-H322M; first compound 0.8 µM,0.582
same,relative viability,NCI-H322M; first compound 2.53 µM,0.624
same,relative viability,HCC-15; first compound 0.08 µM,0.954
same,relative viability,HCC-15; first compound 0.253 µM,0.858
same,relative viability,HCC-15; first compound 0.8 µM,0.951
same,relative viability,HCC-15; first compound 2.53 µM,0.828
same,relative viability,201T; first compound 0.08 µM,1.03
same,relative viability,201T; first compound 0.253 µM,0.977
same,relative viability,201T; first compound 0.8 µM,1.11
same,relative viability,201T; first compound 2.53 µM,1.02
same,relative viability,NCI-H520; first compound 0.08 µM,0.885
same,relative viability,NCI-H520; first compound 0.253 µM,0.809
same,relative viability,NCI-H520; first compound 0.8 µM,0.853
same,relative viability,NCI-H520; first compound 2.53 µM,0.927
same,relative viability,H3255; first compound 0.08 µM,0.271
same,relative viability,H3255; first compound 0.253 µM,0.255
same,relative viability,H3255; first compound 0.8 µM,0.281
same,relative viability,H3255; first compound 2.53 µM,0.239
same,relative viability,NCI-H1734; first compound 0.08 µM,1.2
same,relative viability,NCI-H1734; first compound 0.253 µM,1.04
same,relative viability,NCI-H1734; first compound 0.8 µM,0.996
same,relative viability,NCI-H1734; first compound 2.53 µM,1.19
same,relative viability,NCI-H3122; first compound 0.08 µM,0.99
same,relative viability,NCI-H3122; first compound 0.253 µM,1.03
same,relative viability,NCI-H3122; first compound 0.8 µM,1.03
same,relative viability,NCI-H3122; first compound 2.53 µM,1.01
same,relative viability,NCI-H2405; first compound 0.08 µM,1.18
same,relative viability,NCI-H2405; first compound 0.253 µM,0.84
same,relative viability,NCI-H2405; first compound 0.8 µM,1.06
same,relative viability,NCI-H2405; first compound 2.53 µM,1.09
same,relative viability,NCI-H1650; first compound 0.08 µM,0.732
same,relative viability,NCI-H1650; first compound 0.8 µM,0.781
same,relative viability,NCI-H1650; first compound 2.53 µM,0.813
same,relative viability,PC-14; first compound 0.08 µM,0.322
same,relative viability,PC-14; first compound 0.253 µM,0.314
same,relative viability,PC-14; first compound 0.8 µM,0.344
same,relative viability,PC-14; first compound 2.53 µM,0.348
same,relative viability,NCI-H1563; first compound 0.08 µM,0.993
same,relative viability,NCI-H1563; first compound 0.253 µM,0.535
same,relative viability,NCI-H1563; first compound 0.8 µM,0.905
same,relative viability,NCI-H1563; first compound 2.53 µM,0.958
same,relative viability,LOU-NH91; first compound 0.08 µM,0.835
same,relative viability,LOU-NH91; first compound 0.253 µM,0.662
same,relative viability,LOU-NH91; first compound 0.8 µM,0.771
same,relative viability,LOU-NH91; first compound 2.53 µM,0.782

# Source: the supplement of paper PMC10307832
